Tests used:
[1] = test system: hypertensive individuals who had become hypokalemic
Protocol: In an effort to determine the minimum amount of triamterene needed to reverse the hypokalemia precipitated by hydrochlorothiazide, each subject was continued on hydrochlorothiazide, 50 mg/day administered in a separate tablet, and was also given one of the following daily dosages of triamterene, administered in suspension form throughout the testing period: 0 mg, 25 mg, 50 mg, 75 mg, and 100 mg.

[2] = administration of 100 mg; differently formulated compositions; cited from earlier work

## Nc1nc(N)c2nc(-c3ccccc3)c(N)nc2n1 [triamterene, 2,4,7-triamino-6-phenylpteridine]
[1]; about 75 mg triamterene with 50 mg hydrochlorothiazide
  reversal of hydrochlorothiazide-induced hypokalemia, response: near maximal response
[1]; upper ranges of the doses tested
  effectiveness for reversing hydrochlorothiazide-induced hypokalemia: particularly large in the upper ranges of the doses tested
[2]
  limit in absorptive capacity of the gastrointestinal tract, mean: ~39%

Source: patent publication US4444769A, “Antihypertensive diuretic combination composition and associated method” (Mylan Pharmaceuticals, Inc., priority 1983, dated 1984)
